Measurements reported in patent US20210393742A1, “LONG-ACTING INTERLEUKIN-15 RECEPTOR AGONIST IN COMBINATION WITH ANOTHER PHARMACOLOGICALLY ACTIVE AGENT” (Nektar Therapeutics, priority 2018, published 2021).

Experiments:
[1] = tested on: human PBMCs; assay: Secreted granzyme B in PBMC culture media by ELISA (Example 6); type: cell-based; conditions: overnight, Conjugate 1 1 μg/ml, plate coated with hIgG 0.1 mg/ml
Procedure: Functional activation of human NK cells within a human peripheral blood mononuclear cells (PBMCs) preparation was induced in vitro. PBMCs from two donors were incubated overnight in the presence of (i) mono(methoxyPEG-N-butanamide)40 kD interleukin-15 (Conjugate 1) at a concentration of 1 μg/ml; (ii) on cell culture plastic that had been prior coated overnight with human total immunoglobulin G (hIgG) solution at a concentration of 0.1 mg/ml (iii) on cell culture plastic that had been prior coated overnight with human total immunoglobulin G (hIgG) solution at a concentration of 0.1 mg/ml and in the presence of Conjugate 1 at a concentration of 1 μg/ml; or (iv) on regular cell culture plastic.
After the incubation period, NK cell activation was measured with flow cytometry by measuring the increase of median fluorescence intensity (MFI) signal of CD69 (FIG. 9A) and CD107a (FIG. 9B) detecting antibodies on the surface of CD56+ human NK cells within the PBMCs. Functional activation of NK cells was assessed by calculating the fold-change in MFI when comparing control condition where the cells were exposed to neither hIgG nor Conjugate 1. […] Secreted granzyme B concentration also indicative of NK cell activation in the culture media at the end of the experiment was measured by ELISA (FIG. 9C).

[2] = tested on: HT-29 colorectal carcinoma cells; assay: Tumor growth inhibition and delay in HT-29 colorectal carcinoma model (Example 18); type: in vivo, mice; conditions: day 21 after treatment initiation; cetuximab 40 mg/kg IP x6; Compound 1 0.3 mg/kg IV x3
Procedure: Tumor growth inhibition was evaluated on day 21 after treatment initiation.
The tumor growth delay (TVQT) was evaluated with the endpoint set as 400% tumor growth from baseline.

[3] = tested on: human multiple myeloma RPMI-8226 cells; assay: ADCC of daratumumab-coated target cells by primed human NK cells (Example 12); type: cell-based; conditions: NK cells primed with 300 ng/mL overnight; daratumumab 1 μg/mL; E:T 10:1, 3 hours
Procedure: Human NK cells were magnetically sorted from normal donor PBMCs using negative selection. NK cells were seeded in a 96-well U-bottom plate at a density of 80,000 cells/well (FIG. 15A) OR 400,000 cells/well (FIG. 15B). NK cells were stimulated with 300 ng/mL of a long-acting IL-15 receptor agonist (mono(mPEG-butanamide)IL-15) (+) or left unstimulated (−) in complete RPMI-1640 media supplemented with 10% fetal bovine serum (FBS) and 1% antibiotic/antimycotic overnight at 37° C. in 5% CO2.
The human multiple myeloma RPMI-8226 cells (ATCC #CCL-155) were washed in PBS and stained with 0.15 μM CFSE for 5 min at 37° C. The stimulated NK cells (effector cells) and the daratumumab-coated (+1 μg/mL) CFSE-labeled tumor cells (target cells) were concurrently co-cultured in an E:T ratio of 10:1 for 3 hours at 37° C. in 5% CO2. Following incubation, cells were washed in flow staining buffer, Fc-blocked for 15 min at 4° C., and surface-stained (CD45, CD56, CD3-fluorescently conjugated antibodies). The cells were washed in PBS and incubated in 7-aminoactinomycin (7-AAD) viability stain for 30 minutes at 4° C. before acquiring for flow cytometric analysis using a Fortessa (BD). The percentage of 7-AAD+ CFSE+ target cells from total cell population is the percentage for dead tumor cells.

[4] = tested on: H1975 lung carcinoma cells; assay: Tumor growth in H1975 lung tumor model (Example 17); type: in vivo, mice; conditions: day 27 after treatment initiation; cetuximab 0.25 mg/kg IP x3; Compound 1 0.3 mg/kg IV x3
Procedure: Delay in loss of tumor growth control was evaluated on day 27 after treatment initiation.

[5] = tested on: SKOV-3 cells; assay: Tumor growth inhibition in SKOV-3 ovarian carcinoma model (Example 21); type: in vivo, mice; conditions: 35 days after treatment initiation; trastuzumab 13.5 mg/kg IV x6; Compound 1 0.3 mg/kg IV x3
Procedure: Tumor growth inhibition in inoculated mice was measured 35 days after treatment initiation.

mono(methoxyPEG-N-butanamide)40 kD interleukin-15 [Conjugate 1]
Granzyme B concentration [1]: 56 pg/mL | Granzyme B concentration fold-change relative to no stimulation control [1]: 4.1 fold | tumor growth inhibition [2]: no tumor growth inhibition | ADCC, % 7-AAD+ target cells [3]: enhance ADCC | tumor growth control [4]: no tumor growth inhibition | tumor growth inhibition [5]: no tumor growth inhibition
